Assays:
HT29 cells [1] = test: Peptide binding to colorectal cancer cells on confocal microscopy (HT29); type: cell-based, human; conditions: HT29, 5 μM, 3 min
Experimental: HT29, SW480, and SW620 cells (˜10^3) were grown on cover slips to ˜80% confluence. The cells were washed 1× with PBS and incubated with 5 μM of QRH*-Cy5.5 and PEH*-Cy5.5 for 3 min at RT. The cells were then washed 3× in PBS, fixed with 4% paraformaldehyde (PFA) for 5 min, washed 1× with PBS, and then mounted on glass slides with ProLong Gold reagent containing DAPI (Invitrogen). Confocal fluorescence images were collected with FITC, Cy5.5, and DAPI filters (Leica Inverted SPSX Confocal Microscope System) using a 63× oil-immersion objective. Fluorescence intensities from 5 cells in 2 independent images were quantified using custom Matlab (Mathworks) software.
We assessed binding of QRH*-Cy5.5 to a panel of colorectal cancer cells that vary in EGFR expression level on confocal microscopy. We observed binding of QRH*-Cy5.5 to the surface (arrows) of HT29, SW480, and SW620 cells with decreasing strength, FIG. 3A-C, scale bars 30 μm. […] Results are an average of 10 cells from 2 independent images. EGFR expression is shown on Western blot, FIG. 3H.

HT29 cells [2] = test: Apparent association time constant on flow cytometry; type: binding, human
Experimental: We measured the apparent association time constant of the peptide to HT29 cells as an assessment of binding onset. HT29 cells were grown to […] confluence in 10 cm dishes, and detached with PBS-based cell dissociation buffer (Invitrogen). Cells (˜10^5) were incubated with 5 μM QRH*-Cy5.5 at 4° C. for various time intervals ranging from 0 to 20 min. The cells were centrifuged, washed with cold PBS, and fixed with 4% PFA. Flow cytometry analysis was performed as described above, and the median fluorescence intensity (y) was ratioed with that of HT29 cells without addition of peptide at different time points (t) using Flowjo software. The rate constant k was calculated by fitting the data to a first order kinetics model, y(t)=Imax[1−exp^(−kt)], where Imax=maximum value,^60 using Prism 5.0 software (GraphPad Inc).

[3] = system: HT29, SW480, and SW620 cells; test: Flow cytometry binding to colorectal cancer cells; type: cell-based, human; conditions: 5 μM, 1 hour, 4° C.
Experimental: HT29, SW480, and SW620 cells were grown to confluence and detached with enzyme-free, PBS-based cell dissociation buffer (Gibco, #13151-014) and cell scrapper. The cells were centrifuged at 1500 rpm for 5 min at 4° C., and then blocked with 0.5% BSA in PBS for 30 min on ice and washed with PBS. […] were incubated with 5 μM of either QRH*-Cy5.5 or PEH*-Cy5 for 1 hour at 4° C. with mixing. Cells incubated with PBS alone were used as control. The cells were centrifuged again, washed 3× with cold PBS, and fixed on ice with 4% PFA for 10 min. Flow cytometry was performed with ˜10^4 cells/sample (BD® LSRII, BD Biosciences), and analyzed with the Flowjo software (Tree Star Inc).

human colonic dysplasia = test: Binding of EGFR peptide and antibody to human colonic dysplasia specimens, confocal microscopy; conditions: for log transformed fluorescence intensity, mean (±std): 5 μM, 10 min
Experimental: For the in vivo fluorescence images of mouse colon, the T/B ratios for flat dysplasia and polyps were log-transformed to improve normality. The fold-change between classification pairs was estimated using the anti-log of the difference in the log-transformed data. Differences in results between the experimental and control peptides were evaluated on t-test. *P<0.05 was considered significant. Similar methods were used to evaluate the ex vivo fluorescence images of human colonic specimens. The results were plotted on a receiver-operator characteristic (ROC) curve. Co-localization of peptide and antibody binding was evaluated on Pearson's correlation coefficient. All analyses were performed using custom Matlab software (MathWorks Inc).
Specimens of human colonic mucosa were obtained from biopsy during routine colonoscopy, frozen in OCT, cut in 10 μm sections, and incubated with QRH*-Cy5.5 (5 μM) in 1×PBS for 10 min at RT. The sections were washed 3× with PBS and incubated overnight at 4° C. with 1:1000 dilution of primary monoclonal rabbit anti-EGFR antibody (Cell Signaling Technology, #4267, isotype IgG). The sections were washed with PBS 3× and incubated with 1:500 dilution of Alexa Fluor 488-labeled secondary goat anti-rabbit antibody (Invitrogen) for 1 hour at RT. The sections were washed with PBS 3×, and fixed with 4% PFA for 10 min. The sections were then washed with PBS 1×, and mounted with ProLong Gold reagent containing DAPI (Invitrogen). Confocal fluorescence images were collected with DAPI, FITC and Cy5.5 filters with 20× objective (Leica TCS SP5 Microsystems). The mean fluorescence intensities from 3 boxes (dimensions of 30×30 μm2) located completely within the surface epithelium of each specimen were measured. […] Adjacent sections were processed for routine histology (H&E) that was reviewed by two gastrointestinal pathologists (SRO and HDA).

average fold-change for dysplasia compared to normal (human colonic dysplasia): 19.4
log transformed fluorescence intensity, mean (±std) (human colonic dysplasia; dysplasia (n=29)): 1.04±0.54
log transformed fluorescence intensity, mean (±std) (human colonic dysplasia; normal (n=15)): −0.248±0.49
Substance: QRHKPRE (SEQ ID NO: 1) with Cy5.5 fluorophore attached via a GGGSK linker (SEQ ID NO: 18) on the C-terminus [QRH*-Cy5.5]
fluorescence intensity of binding (mean±std) (HT29 cells [1]): 3.6±0.6
binding time scale (onset) (HT29 cells [2]): 2.46 min
apparent association time constant k (HT29 cells [2]; 5 μM, 4° C., flow cytometry): 0.406 min⁻¹
binding on flow cytometry compared with control peptide [3]: stronger binding to each cell than PEH*-Cy5.5

— patent US20200102349A1, “PEPTIDE REAGENTS AND METHODS FOR DETECTION AND TARGETING OF DYSPLASIA, EARLY CANCER AND CANCER” (THE REGENTS OF THE UNIVERSITY OF MICHIGAN, priority 2014, published 2020)
